According to patent US20200055839A1 (priority 2017, published 2020):

Test system: NL-RLuc virus
Assay: Inhibition of HIV replication (NL-RLuc virus, luciferase readout in MT-2 cells)
Format: cell-based
Details: Human immunodeficiency virus 1, MT2, 120 h, MT-2 cells infected with NL-RLuc virus, 5 days of incubation, 10% FBS, at least 2 experiments
In short: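 EC50 derived via median effect equation from at least 2 experiments, using luciferase expression as virus-growth readout. Replication-competent NL-RLuc reporter virus (nef partly replaced by Renilla luciferase) infected MT-2 cells with serial compound dilutions; 5-day incubation in RPMI 1640 plus 10% FBS.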

SMILES | EC50 [nM]
Cc1nc(Nc2ccc(F)cn2)c(-c2ccc(OCCc3ccc(F)cc3)cc2)c(N2CCC(C)(C)CC2)c1[C@H](OC(C)(C)C)C(=O)O [Example 83, (S)-2-(tert-Butoxy)-2-(4-(4,4-dimethylpiperidin-1-yl)-5-(4-(4-fluorophenethoxy)phenyl)-6-((5-fluoropyridin-2-yl)amino)-2-methylpyridin-3-yl)acetic acid] | 5
COc1c(F)cc(-c2c(CN3CCC4(CCC4)CC3)nc(Cl)c([C@H](OC(C)(C)C)C(=O)O)c2N2CCC(C)(C)CC2)cc1F [Example 204] | 1
Cc1ncc(-c2ccc(CN(C)c3ncnc4c3oc3ccccc34)cc2)c(N2CCC(C)(C)CC2)c1[C@H](OC(C)(C)C)C(=O)O [Example 20, (2S)-2-(tert-Butoxy)-2-[4-(4,4-dimethylpiperidin-1-yl)-2-methyl-5-(4-{[methyl({8-oxa-3,5-diazatricyclo[7.4.0.0^2,7]trideca-1(9),2(7),3,5,10,12-hexaen-6-yl})amino]methyl}phenyl)pyridin-3-yl]acetic acid] | 2
COc1c(F)cc(-c2c(CNCC3CCOCC3)nc(Cl)c([C@H](OC(C)(C)C)C(=O)O)c2N2CCC(C)(C)CC2)cc1F [Example 203, (S)-2-(tert-Butoxy)-2-(2-chloro-5-(3,5-difluoro-4-methoxyphenyl)-4-(4,4-dimethylpiperidin-1-yl)-6-((((tetrahydro-2H-pyran-4-yl)methyl)amino)methyl)pyridin-3-yl)acetic acid] | 7
Cc1ccc(CCOc2ncc(-c3cnc(C)c([C@H](OC(C)(C)C)C(=O)O)c3N3CCC(C)(C)CC3)cc2F)cc1 [Example 405, (2S)-2-(tert-butoxy)-2-[4-(4,4-dimethylpiperidin-1-yl)-5′-fluoro-6-methyl-6′-[2-(4-methylphenyl)ethoxy]-[3,3′-bipyridine]-5-yl]acetic acid] | 4
Cc1ncc(-c2ccc(OCc3cccc(Cl)c3)cn2)c(N2CCC(C)(C)CC2)c1[C@H](OC(C)(C)C)C(=O)O [Example 337, (2S)-2-(tert-butoxy)-2-{5-[(3-chlorophenyl)methoxy]-4′-(4,4-dimethylpiperidin-1-yl)-6′-methyl-[2,3′-bipyridine]-5′-yl}acetic acid] | 2
Cc1ncc(-c2cnc(O[C@@H](C)c3ccccc3)c(F)c2)c(N2CCC(C)(C)CC2)c1[C@H](OC(C)(C)C)C(=O)O [Example 400, (2S)-2-(tert-butoxy)-2-[4-(4,4-dimethylpiperidin-1-yl)-5′-fluoro-6-methyl-6′-[(1S)-1-phenylethoxy]-[3,3′-bipyridine]-5-yl]acetic acid] | 6
Cc1ncc(-c2ccc(OCCCc3ccccc3)cn2)c(N2CCC(C)(C)CC2)c1[C@H](OC(C)(C)C)C(=O)O [Example 321, (2S)-2-(tert-butoxy)-2-[4′-(4,4-dimethylpiperidin-1-yl)-6′-methyl-5-(3-phenylpropoxy)-[2,3′-bipyridine]-5′-yl]acetic acid] | 0.5
CCCOc1ccc(-c2cnc(C)c([C@H](OC(C)(C)C)C(=O)O)c2N2CCC(C)(C)CC2)nc1 [Example 318, (2S)-2-(tert-butoxy)-2-[4′-(4,4-dimethylpiperidin-1-yl)-6′-methyl-5-propoxy-[2,3′-bipyridine]-5′-yl]acetic acid] | 3
Cc1ncc(-c2cc(F)c(CNc3ncnc4c3oc3ccccc34)c(F)c2)c(N2CCC(C)(C)CC2)c1[C@H](OC(C)(C)C)C(=O)O [Example 219, (S)-2-(5-(4-((Benzofuro[3,2-d]pyrimidin-4-ylamino)methyl)-3,5-difluorophenyl)-4-(4,4-dimethylpiperidin-1-yl)-2-methylpyridin-3-yl)-2-(tert-butoxy)acetic acid] | 2
Cc1ccccc1COc1ccc(-c2cnc(C)c([C@H](OC(C)(C)C)C(=O)O)c2N2CCC(C)(C)CC2)nc1 [Example 346, (2S)-2-(tert-butoxy)-2-[4′-(4,4-dimethylpiperidin-1-yl)-6′-methyl-5-[(2-methylphenyl)methoxy]-[2,3′-bipyridine]-5′-yl]acetic acid] | 5
Cc1nc(N)c(-c2ccc(OCCc3ccc(F)cc3)cc2F)c(N2CCC(C)(C)CC2)c1[C@H](OC(C)(C)C)C(=O)O [Example 72, (2S)-2-(6-Amino-4-(4,4-dimethylpiperidin-1-yl)-5-(2-fluoro-4-(4-fluorophenethoxy)phenyl)-2-methylpyridin-3-yl)-2-(tert-butoxy)acetic acid] | 2
Cc1nc(Nc2cccnc2)c(-c2ccc(OCCc3ccc(F)cc3)cc2)c(N2CCC(C)(C)CC2)c1[C@H](OC(C)(C)C)C(=O)O [Example 64, (S)-2-(tert-Butoxy)-2-(4-(4,4-dimethylpiperidin-1-yl)-5-(4-(4-fluorophenethoxy)phenyl)-2-methyl-6-(pyridin-3-ylamino)pyridin-3-yl)acetic acid] | 5
Cc1nc(N)c(-c2cnc(OCCc3ccccc3F)c(F)c2)c(N2CCC(C)(C)CC2)c1[C@H](OC(C)(C)C)C(=O)O [Example 117, (S)-2-(2-Amino-4-(4,4-dimethylpiperidin-1-yl)-5′-fluoro-6′-(2-fluorophenethoxy)-6-methyl-[3, 3′-bipyridin]-5-yl)-2-(tert-butoxy)acetic acid] | 1
Cc1ncc(-c2ccc(OCCc3c(Cl)cccc3Cl)cc2)c(N2CCC(C)(C)CC2)c1[C@H](OC(C)(C)C)C(=O)O [Example 366, (2S)-2-(tert-butoxy)-2-(5-{4-[2-(2,6-dichlorophenyl)ethoxy]phenyl}-4-(4,4-dimethylpiperidin-1-yl)-2-methylpyridin-3-yl)acetic acid] | 5
CCc1ncc(-c2ccc(OCCc3ccc(F)cc3)cn2)c(N2CCC(C)(C)CC2)c1[C@H](OC(C)(C)C)C(=O)O [Example 270] | 0.6
Cc1nc(N)c(-c2cnc(OCCc3ccc(F)cc3)c(F)c2)c(N2CCC(C)(C)CC2)c1[C@H](OC(C)(C)C)C(=O)O [Example 115, (S)-2-(2-Amino-4-(4,4-dimethylpiperidin-1-yl)-5′-fluoro-6′-(4-fluorophenethoxy)-6-methyl-[3, 3′-bipyridin]-5-yl)-2-(tert-butoxy)acetic acid] | 1
Cc1ncc(-c2cnc(O[C@H](C)Cc3ccccc3)c(F)c2)c(N2CCC(C)(C)CC2)c1[C@H](OC(C)(C)C)C(=O)O [Example 380, (2S)-2-(tert-butoxy)-2-[4-(4,4-dimethylpiperidin-1-yl)-5′-fluoro-6-methyl-6′-{[(2R)-1-phenylpropan-2-yl]oxy}-[3,3′-bipyridine]-5-yl]acetic acid] | 2
Cc1ncc(-c2ccc(OCCCCc3ccccc3)cn2)c(N2CCC(C)(C)CC2)c1[C@H](OC(C)(C)C)C(=O)O [Example 341, (2S)-2-(tert-butoxy)-2-[4′-(4,4-dimethylpiperidin-1-yl)-6′-methyl-5-(4-phenylbutoxy)-[2,3′-bipyridine]-5′-yl]acetic acid] | 3
Cc1nc(OCC(C)C)c(Cl)cc1-c1cnc(C)c([C@H](OC(C)(C)C)C(=O)O)c1N1CCC(C)(C)CC1 [Example 425, (S)-2-(tert-Butoxy)-2-(5′-chloro-4-(4,4-dimethylpiperidin-1-yl)-6′-isobutoxy-2′,6-dimethyl-[3, 3′-bipyridin]-5-yl)acetic acid] | 126

Same assay, conditions: MT-2 cells infected with NL-RLuc virus, 5 days of incubation, 10% FBS, at least 2 experiments

SMILES | EC50 [nM]
Cc1nc(C(C)O)c(-c2ccc(OCCc3ccc(F)cc3)c(F)c2)c(N2CCC(C)(C)CC2)c1[C@H](OC(C)(C)C)C(=O)O (single isomer, unassigned) [Example 237] | 3
